Inhibition data for 2 molecules are collected here from ChEMBL document CHEMBL5257057.

Calls of active or inactive are those of the source. The calls are words filed in the database; no cut-off is given here.

Assay [1] has as its target Tyrosine-protein kinase Tec (Homo sapiens) (UniProt P42680). In words: Inhibition of TEC (unknown origin) at 1 uM relative to control.
In assay [2] the target is Tyrosine-protein kinase BTK (Homo sapiens) (UniProt Q06187). In words: Inhibition of BTK (unknown origin) at 1 uM relative to control.
Sequence of Tyrosine-protein kinase BTK (Homo sapiens) (Q06187 whole entry): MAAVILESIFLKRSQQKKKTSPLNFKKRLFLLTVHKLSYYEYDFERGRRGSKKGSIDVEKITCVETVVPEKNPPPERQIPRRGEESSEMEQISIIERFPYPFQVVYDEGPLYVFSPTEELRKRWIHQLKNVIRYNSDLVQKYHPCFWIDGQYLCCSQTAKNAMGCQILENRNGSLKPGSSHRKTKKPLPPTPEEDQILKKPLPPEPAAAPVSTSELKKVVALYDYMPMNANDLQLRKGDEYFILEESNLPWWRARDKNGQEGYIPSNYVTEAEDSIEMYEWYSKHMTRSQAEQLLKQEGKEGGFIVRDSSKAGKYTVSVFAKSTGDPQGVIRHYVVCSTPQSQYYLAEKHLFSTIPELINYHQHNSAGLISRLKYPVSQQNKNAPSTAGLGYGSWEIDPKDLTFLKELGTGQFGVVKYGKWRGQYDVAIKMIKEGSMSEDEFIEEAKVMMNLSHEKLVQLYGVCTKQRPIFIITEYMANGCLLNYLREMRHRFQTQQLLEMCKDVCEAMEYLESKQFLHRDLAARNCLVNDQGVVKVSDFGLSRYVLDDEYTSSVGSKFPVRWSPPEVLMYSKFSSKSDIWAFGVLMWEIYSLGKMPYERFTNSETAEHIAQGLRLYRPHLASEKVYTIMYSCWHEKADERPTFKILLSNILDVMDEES
The target in assay [3] is Protein-tyrosine kinase 6 (Homo sapiens) (UniProt Q13882). Description: Inhibition of BRK (unknown origin) at 1 uM relative to control.
Sequence of Protein-tyrosine kinase 6 (Homo sapiens) (Q13882 whole entry, looked up): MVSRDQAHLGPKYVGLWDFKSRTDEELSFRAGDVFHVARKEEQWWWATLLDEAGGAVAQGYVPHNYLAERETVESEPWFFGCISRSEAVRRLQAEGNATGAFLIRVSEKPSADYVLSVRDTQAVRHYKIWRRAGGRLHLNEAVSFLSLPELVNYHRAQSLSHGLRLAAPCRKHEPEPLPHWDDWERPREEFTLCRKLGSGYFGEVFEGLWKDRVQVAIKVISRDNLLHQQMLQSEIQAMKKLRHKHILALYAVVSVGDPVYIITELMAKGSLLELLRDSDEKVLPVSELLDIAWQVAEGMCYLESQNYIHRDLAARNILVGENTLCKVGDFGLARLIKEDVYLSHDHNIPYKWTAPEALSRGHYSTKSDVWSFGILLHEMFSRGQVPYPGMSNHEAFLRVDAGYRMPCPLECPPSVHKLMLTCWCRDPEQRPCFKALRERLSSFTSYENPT
Assay [4] has as its target Tyrosine-protein kinase Lck (Homo sapiens) (UniProt P06239). Description: Inhibition of LCK (unknown origin) at 1 uM relative to control.
Assay [5] concerns the target Tyrosine-protein kinase Blk (Homo sapiens) (UniProt P51451). In words: Inhibition of BLK (unknown origin) at 1 uM relative to control.
The target of assay [6] is Tyrosine-protein kinase BTK (Homo sapiens) (UniProt Q06187). In words: Inhibition of BTK phosphorylation in human JeKo-1 cells at 0.01 to 10 uM incubated for 2 hrs by Western blot analysis. The following applies: dose 0.01-10 µM. Type of assay: cell-based. (A western blot detects proteins with antibodies after separation by electrophoresis.)
Assay [7] concerns the target T1, Tyrosine-protein kinase TXK (Homo sapiens) (UniProt P42681).
T1 sequence (whole entry): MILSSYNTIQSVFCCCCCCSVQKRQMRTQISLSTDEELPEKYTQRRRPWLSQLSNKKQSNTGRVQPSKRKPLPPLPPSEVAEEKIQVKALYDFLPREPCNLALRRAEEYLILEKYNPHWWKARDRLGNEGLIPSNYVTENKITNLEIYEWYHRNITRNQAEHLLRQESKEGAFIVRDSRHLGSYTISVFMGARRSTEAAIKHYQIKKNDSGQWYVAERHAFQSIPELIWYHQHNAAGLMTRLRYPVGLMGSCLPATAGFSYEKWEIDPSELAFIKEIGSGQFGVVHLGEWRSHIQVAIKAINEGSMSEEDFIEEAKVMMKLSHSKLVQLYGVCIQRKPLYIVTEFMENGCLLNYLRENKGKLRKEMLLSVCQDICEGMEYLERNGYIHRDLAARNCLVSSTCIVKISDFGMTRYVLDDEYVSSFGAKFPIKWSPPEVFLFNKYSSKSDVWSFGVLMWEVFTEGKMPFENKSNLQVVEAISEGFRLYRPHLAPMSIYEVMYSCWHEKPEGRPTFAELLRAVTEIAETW
Description: Inhibition of TXK (unknown origin) at 1 uM relative to control.

Assay [8] addresses Receptor tyrosine-protein kinase erbB-4 (Homo sapiens) (UniProt Q15303). In words: Inhibition of ERBB4 (unknown origin) at 1 uM relative to control.
Assay [9] addresses Tyrosine-protein kinase Fgr (Homo sapiens) (UniProt P09769). In words: Inhibition of FGR (unknown origin) at 1 uM relative to control.

Sequence of Receptor tyrosine-protein kinase erbB-4 (Homo sapiens) (Q15303 whole entry): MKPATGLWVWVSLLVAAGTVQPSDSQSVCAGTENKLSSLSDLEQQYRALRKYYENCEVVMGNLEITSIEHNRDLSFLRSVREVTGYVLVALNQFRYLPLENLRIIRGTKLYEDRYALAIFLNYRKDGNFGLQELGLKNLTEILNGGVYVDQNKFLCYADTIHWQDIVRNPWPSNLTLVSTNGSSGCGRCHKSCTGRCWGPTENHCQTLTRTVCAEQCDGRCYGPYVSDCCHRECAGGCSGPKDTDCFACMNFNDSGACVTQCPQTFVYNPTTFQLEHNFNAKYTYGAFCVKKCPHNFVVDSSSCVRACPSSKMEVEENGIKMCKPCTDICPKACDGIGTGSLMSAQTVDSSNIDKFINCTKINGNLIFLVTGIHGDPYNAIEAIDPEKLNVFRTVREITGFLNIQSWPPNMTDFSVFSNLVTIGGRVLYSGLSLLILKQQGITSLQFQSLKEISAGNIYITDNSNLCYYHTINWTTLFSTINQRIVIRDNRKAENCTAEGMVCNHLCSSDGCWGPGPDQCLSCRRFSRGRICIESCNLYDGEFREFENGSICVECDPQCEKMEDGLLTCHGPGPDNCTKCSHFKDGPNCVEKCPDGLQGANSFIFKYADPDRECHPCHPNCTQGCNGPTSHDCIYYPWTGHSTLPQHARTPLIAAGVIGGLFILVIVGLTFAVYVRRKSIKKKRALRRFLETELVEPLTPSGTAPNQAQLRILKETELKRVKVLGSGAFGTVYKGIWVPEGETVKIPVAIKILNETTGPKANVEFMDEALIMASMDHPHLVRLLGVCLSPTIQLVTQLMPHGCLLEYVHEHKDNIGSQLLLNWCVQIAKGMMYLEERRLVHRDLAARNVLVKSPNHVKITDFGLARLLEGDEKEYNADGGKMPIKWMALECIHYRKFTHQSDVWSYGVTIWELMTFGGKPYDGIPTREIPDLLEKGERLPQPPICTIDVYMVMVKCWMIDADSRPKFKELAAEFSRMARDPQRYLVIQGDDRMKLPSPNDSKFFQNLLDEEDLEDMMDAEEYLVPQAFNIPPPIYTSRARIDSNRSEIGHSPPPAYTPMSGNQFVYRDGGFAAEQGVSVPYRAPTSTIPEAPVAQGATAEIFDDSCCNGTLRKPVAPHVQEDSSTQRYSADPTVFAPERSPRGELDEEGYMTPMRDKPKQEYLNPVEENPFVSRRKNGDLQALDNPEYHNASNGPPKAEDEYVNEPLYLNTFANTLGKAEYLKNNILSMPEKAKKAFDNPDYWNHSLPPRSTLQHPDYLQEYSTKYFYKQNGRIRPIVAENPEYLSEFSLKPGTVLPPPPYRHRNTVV
Sequence of Tyrosine-protein kinase Tec (Homo sapiens) (P42680 whole entry, looked up): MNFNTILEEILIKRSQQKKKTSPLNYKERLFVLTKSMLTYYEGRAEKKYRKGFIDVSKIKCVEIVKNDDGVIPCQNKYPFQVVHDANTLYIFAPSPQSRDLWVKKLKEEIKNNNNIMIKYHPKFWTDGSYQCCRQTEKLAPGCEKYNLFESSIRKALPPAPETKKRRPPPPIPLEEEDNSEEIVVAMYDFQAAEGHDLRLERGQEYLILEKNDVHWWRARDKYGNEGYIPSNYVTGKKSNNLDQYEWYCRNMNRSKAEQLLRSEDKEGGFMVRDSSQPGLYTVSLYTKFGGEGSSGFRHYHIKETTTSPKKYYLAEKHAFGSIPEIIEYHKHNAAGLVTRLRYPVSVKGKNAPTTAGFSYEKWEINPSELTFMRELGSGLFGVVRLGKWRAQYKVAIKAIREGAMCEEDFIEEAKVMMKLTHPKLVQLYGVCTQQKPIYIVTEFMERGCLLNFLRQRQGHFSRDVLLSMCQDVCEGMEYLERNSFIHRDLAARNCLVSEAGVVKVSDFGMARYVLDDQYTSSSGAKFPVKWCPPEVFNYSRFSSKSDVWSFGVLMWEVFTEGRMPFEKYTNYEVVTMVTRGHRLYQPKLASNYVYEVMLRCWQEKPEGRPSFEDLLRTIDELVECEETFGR
Sequence of Tyrosine-protein kinase Blk (Homo sapiens) (P51451 2-505 limits assumed): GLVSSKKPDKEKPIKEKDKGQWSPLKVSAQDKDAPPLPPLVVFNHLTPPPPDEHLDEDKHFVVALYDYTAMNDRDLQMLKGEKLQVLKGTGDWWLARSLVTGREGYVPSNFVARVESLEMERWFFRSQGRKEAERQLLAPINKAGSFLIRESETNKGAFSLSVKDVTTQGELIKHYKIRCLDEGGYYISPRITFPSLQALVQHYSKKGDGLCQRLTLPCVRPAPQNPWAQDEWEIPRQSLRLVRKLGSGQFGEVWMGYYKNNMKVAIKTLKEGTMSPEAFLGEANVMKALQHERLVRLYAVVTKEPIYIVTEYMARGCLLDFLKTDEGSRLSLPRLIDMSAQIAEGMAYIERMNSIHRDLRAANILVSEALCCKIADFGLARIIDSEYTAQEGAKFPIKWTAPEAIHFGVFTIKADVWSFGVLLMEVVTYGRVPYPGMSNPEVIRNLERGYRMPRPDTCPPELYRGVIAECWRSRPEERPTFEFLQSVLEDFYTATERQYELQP
Sequence of Tyrosine-protein kinase Lck (Homo sapiens) (P06239 2-509 limits assumed): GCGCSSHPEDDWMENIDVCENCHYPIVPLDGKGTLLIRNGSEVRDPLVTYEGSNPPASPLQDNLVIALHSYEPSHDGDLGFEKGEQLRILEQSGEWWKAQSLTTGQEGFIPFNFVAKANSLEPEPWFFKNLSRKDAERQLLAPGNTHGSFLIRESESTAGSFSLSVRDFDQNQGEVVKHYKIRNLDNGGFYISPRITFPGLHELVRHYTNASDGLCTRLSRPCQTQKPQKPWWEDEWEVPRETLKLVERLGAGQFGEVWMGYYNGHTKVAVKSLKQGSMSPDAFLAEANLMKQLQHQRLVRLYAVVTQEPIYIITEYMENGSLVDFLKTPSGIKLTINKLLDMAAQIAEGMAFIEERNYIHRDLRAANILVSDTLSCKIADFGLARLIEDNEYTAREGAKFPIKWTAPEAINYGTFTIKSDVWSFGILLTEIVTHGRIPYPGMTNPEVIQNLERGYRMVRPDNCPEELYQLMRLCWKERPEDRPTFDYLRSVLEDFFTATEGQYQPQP
Sequence of Tyrosine-protein kinase Fgr (Homo sapiens) (P09769 2-529 limits assumed): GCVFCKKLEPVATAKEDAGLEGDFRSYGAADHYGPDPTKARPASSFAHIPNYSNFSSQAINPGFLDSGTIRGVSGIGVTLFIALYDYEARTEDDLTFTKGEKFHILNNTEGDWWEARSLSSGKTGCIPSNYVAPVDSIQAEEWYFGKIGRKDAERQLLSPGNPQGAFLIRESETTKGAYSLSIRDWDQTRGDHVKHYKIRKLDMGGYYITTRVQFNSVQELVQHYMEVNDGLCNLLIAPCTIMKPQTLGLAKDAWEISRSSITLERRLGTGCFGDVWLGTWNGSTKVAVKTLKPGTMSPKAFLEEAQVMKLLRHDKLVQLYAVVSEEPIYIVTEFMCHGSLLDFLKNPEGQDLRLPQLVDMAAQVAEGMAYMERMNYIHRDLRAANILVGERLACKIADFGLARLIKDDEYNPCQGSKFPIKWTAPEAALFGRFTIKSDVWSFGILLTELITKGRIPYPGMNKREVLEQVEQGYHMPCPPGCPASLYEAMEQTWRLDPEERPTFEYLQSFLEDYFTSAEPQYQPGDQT

For `C=CC(=O)N1CCC[C@H](n2nc(-c3c(C)cc(Oc4ccccc4)cc3C)c3c(N)ncnc32)C1`, the inhibition (commonly the change of the read-out against control, counted positive when it falls) was determined as 10% in assay [1]; 10% in assay [2]; 50% in assay [3]; 50% in [4]; 10% in assay [5]; 10% in assay [7]. Further, the figures for the inhibition in assay [8] and in [9] were 10% and 50%, respectively. The inhibition entry in [6] is “Active”.
In the case of `C=CC(=O)N1CCC[C@H](n2nc(-c3ccc(Oc4ccccc4)cc3C)c3c(N)ncnc32)C1`, the inhibition result in assay [6] is “Active”.
